Here are results for 23 molecules from patent US10364256B2 (GlaxoSmithKline Intellectual Property Development Limited, priority 2015, dated 2019).

Test [1] has as its target T1, Keap1 Kelch domain (321-609) / TAMRA-labeled 16mer NRF2 peptide (ETGE motif) (Homo sapiens, UniProt Q14145).
T1 construct: the Kelch domain (321-609) of Keap1 is used
As to the kind of experiment: NRF2-Keap1 FP Assay (Keap1 Kelch fluorescence polarization). The format is binding. The note with it: 20 nM Keap1 (321-609), 8 nM Tamra labeled peptide. The essentials:
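Compound dilutions (3-fold) were incubated 1 hr at room temperature with 20 nM Keap1 Kelch (321-609) and 8 nM TAMRA-labeled ETGE 16mer peptide. Buffer was 50 mM Tris pH 8.0, 100 mM NaCl, 5 mM MgCl2, 1 mM DTT, 2 mM CHAPS, 0.005% BSA. Fluorescence polarization (mP) was normalized to controls and fitted with a four-parameter equation to give pIC50.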
(In general: Fluorescence polarisation rises when a labelled molecule tumbles more slowly, as on binding a larger partner.)

For test [2], the target named is T2, full length Keap1 protein / full length NRF2 protein (Homo sapiens, UniProt Q14145).
T2 construct: full length NRF2 protein and full length Keap1 protein (Keap1 exists a dimer) are used; His
Put plainly: NRF2-Keap1 TR-FRET Low Protein Assay. The class given is binding. The following applies: 1.25 nM Keap1 FlagHis and 2.5 nM biotin-NRF2 added. The essentials:
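Flag-tagged full-length Keap1 was preincubated with compound (3-fold series) for 2.25 h at 37 °C in Tris pH 8.0/MgCl2/NaCl/BSA/DTT/CHAPS. Biotin-Avi-NRF2 (added at 2.5 nM) was then bound for 1.25 h at 4 °C. Eu-streptavidin/anti-Flag-APC TR-FRET (665/615 nm) was read after 1 h at RT, and pIC50 came from a four-parameter fit.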
(In general: In TR-FRET formats the signal depends on donor and acceptor labels being close together.)

T2 sequence (Q14145 whole entry): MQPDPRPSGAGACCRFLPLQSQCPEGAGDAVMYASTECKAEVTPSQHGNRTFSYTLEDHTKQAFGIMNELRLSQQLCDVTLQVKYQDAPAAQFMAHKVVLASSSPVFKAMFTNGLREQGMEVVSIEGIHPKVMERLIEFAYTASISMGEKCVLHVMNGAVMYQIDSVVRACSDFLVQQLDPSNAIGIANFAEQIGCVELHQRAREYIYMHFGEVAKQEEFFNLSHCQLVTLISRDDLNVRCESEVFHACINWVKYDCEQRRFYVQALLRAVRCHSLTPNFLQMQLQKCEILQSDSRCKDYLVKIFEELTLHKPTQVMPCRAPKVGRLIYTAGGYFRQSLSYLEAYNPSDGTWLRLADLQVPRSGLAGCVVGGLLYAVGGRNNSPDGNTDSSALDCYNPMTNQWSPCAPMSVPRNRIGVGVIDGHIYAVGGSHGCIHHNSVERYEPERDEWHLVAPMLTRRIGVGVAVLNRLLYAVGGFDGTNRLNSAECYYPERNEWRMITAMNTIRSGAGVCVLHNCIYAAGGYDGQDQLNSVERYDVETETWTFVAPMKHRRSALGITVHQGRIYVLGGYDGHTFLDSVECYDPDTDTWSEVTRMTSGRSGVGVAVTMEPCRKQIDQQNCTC
T1 sequence (Q14145 321-609): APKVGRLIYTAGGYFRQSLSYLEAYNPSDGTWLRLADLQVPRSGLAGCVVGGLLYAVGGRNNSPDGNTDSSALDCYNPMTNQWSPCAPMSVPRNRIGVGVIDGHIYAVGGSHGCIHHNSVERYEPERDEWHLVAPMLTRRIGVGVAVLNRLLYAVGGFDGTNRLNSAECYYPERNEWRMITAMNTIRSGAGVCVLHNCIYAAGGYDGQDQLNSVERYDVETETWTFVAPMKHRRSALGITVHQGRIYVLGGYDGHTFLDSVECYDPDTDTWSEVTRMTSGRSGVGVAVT

Consider `CCC[C@@H]1CO[C@@H](C)CN1C(=O)c1cccc(-c2cccc(-n3ncc(C(=O)O)c3C3CC3)c2)c1F` [Example 45, 5-cyclopropyl-1-(3-{2-fluoro-3-[(2S,5R)-2-methyl-5-propylmorpholine-4-carbonyl]phenyl}phenyl)-1H-pyrazole-4-carboxylic Acid], for which the IC50 in test [1] and in test [2] was 10 to 100 nM throughout.
Consider `O=C(O)c1cnn(-c2cccc(-c3cccc(C(=O)N4CCCCC4C4CCCC4)c3F)c2)c1C1CC1` (stereo not shown) [Example 33, 1-{3-[3-(2-Cyclopentylpiperidine-1-carbonyl)-2-fluorophenyl]phenyl}-5-cyclopropyl-1H-pyrazole-4-carboxylic Acid], for which the 50% inhibitory concentration (IC50) in test [1] and in test [2] was 10 to 100 nM each time.
For the molecule `COCC1CCCCN1C(=O)c1cccc(-c2cccc(-n3ncc(C(=O)O)c3C3C[C@H]3c3cn(C)nn3)c2)c1F` (mixture of isomers) [Example 264, 1-(3′-(2-(Methoxymethyl)piperidine-1-carbonyl)-2′-fluoro-[1,1′-biphenyl]-3-yl)-5-(trans-2-(1-methyl-1H-1,2,3-triazol-4-yl)cyclopropyl)-1H-pyrazole-4-carboxylic Acid], the half-maximal inhibitory concentration (IC50) in test [1] was 10 to 100 nM; in test [2], less than 10 nM.
Consider `CC(Oc1cccc(-c2cccc(-n3ncc(C(=O)O)c3[C@@H]3C[C@H]3c3cn(C)nn3)n2)c1)C1CCCCC1` (relative stereo) [Example 249, 1-(6-(3-(1-Cyclohexylethoxy)phenyl)pyridin-2-yl)-5-(trans-2-(1-methyl-1H-1,2,3-triazol-4-yl)cyclopropyl)-1H-pyrazole-4-carboxylic Acid], for which the IC50 in test [1] is 10 to 100 nM; in test [2], less than 10 nM.
Turning to `Cn1cc([C@@H]2C[C@H]2c2c(C(=O)O)cnn2-c2cccc(-c3cccc(CN4Cc5ccccc5OC(C)(C)C4)c3)c2)nn1` (racemic) [Example 254, 1-(3′-((2,2-Dimethyl-2,3-dihydrobenzo[f][1,4]oxazepin-4(5H)-yl)methyl)-[1,1′-biphenyl]-3-yl)-5-(trans-2-(1-methyl-1H-1,2,3-triazol-4-yl)cyclopropyl)-1H-pyrazole-4-carboxylic Acid], the half-inhibitory concentration (IC50) in test [1] and in test [2] was 10 to 100 nM each time.
`CC(C)CC1CCCCN1C(=O)c1cccc(-c2cccc(-n3ncc(C(=O)O)c3C3CC3)c2)c1F` (stereo not shown) [Example 28, 5-Cyclopropyl-1-(3-{2-fluoro-3-[2-(2-methylpropyl)piperidine-1-carbonyl]phenyl}phenyl)-1H-pyrazole-4-carboxylic Acid]: the IC50 in test [1] and in test [2] was 10 to 100 nM each time.
For the molecule `CC(C)Oc1cccc(-c2cccc(-n3ncc(C(=O)O)c3C3CC3c3cn(C)nn3)c2)c1` (stereo not shown) [Example 59, 1-(3′-Isopropoxy-[1,1′-biphenyl]-3-yl)-5-(2-(1-methyl-1H-1,2,3-triazol-4-yl)cyclopropyl)-1H-pyrazole-4-carboxylic Acid], the IC50 in test [1] and in test [2] was 100 to 1000 nM throughout.
With `CC1CC(C)CN(C(=O)c2cccc(-c3cccc(-n4ncc(C(=O)O)c4C4CC4)c3)c2F)C1` (stereo not shown) [Example 53, 5-Cyclopropyl-1-[3′-(3,5-dimethyl-piperidine-1-carbonyl)-2′-fluoro-biphenyl-3-yl]-1H-pyrazole-4-carboxylic Acid], the IC50 in test [1] and in test [2] was 10 to 100 nM throughout.
For `O=C(O)c1cnn(-c2cccc(-c3cccc(C(=O)N4CCCC5CCCCC54)c3F)c2)c1C1CC1` (stereo not shown) [Example 31, 5-Cyclopropyl-1-{3-[3-(decahydroquinoline-1-carbonyl)-2-fluorophenyl]phenyl}-1H-pyrazole-4-carboxylic Acid], the half-maximal inhibitory concentration (IC50) in test [1] was in the range of 100 to 1000 nM; in test [2] it was 10 to 100 nM.
On to `CC1CCCN(C(=O)c2cccc(-c3cccc(-n4ncc(C(=O)O)c4C4CC4)c3)c2F)CC1` (stereo not shown) [Example 29, 5-Cyclopropyl-1-{3-[2-fluoro-3-(4-methylazepane-1-carbonyl)phenyl]phenyl}-1H-pyrazole-4-carboxylic Acid], for which the 50% inhibitory concentration (IC50) in test [1] and in test [2] was 10 to 100 nM each time.
With `Cn1cc([C@@H]2C[C@H]2c2c(C(=O)O)cnn2-c2cccc(-c3cccc(-n4ncc5c4C(C)(C)CC5)c3)n2)nn1` (racemic) [Example 251, 1-(6-(3-(6,6-Dimethyl-5,6-dihydrocyclopenta[c]pyrazol-1(4H)-yl)phenyl)pyridin-2-yl)-5-(trans-2-(1-methyl-1H-1,2,3-triazol-4-yl)cyclopropyl)-1H-pyrazole-4-carboxylic Acid], the figures for the IC50 in test [1] and in test [2] were 10 to 100 nM and less than 10 nM, respectively.
Take `O=C(O)c1cnn(-c2cccc(-c3cccc(C(=O)N4C5CCCC4CCC5)c3F)c2)c1C1CC1` [Example 34, 1-[3-(3-{9-azabicyclo[3.3.1]nonane-9-carbonyl}-2-fluorophenyl)phenyl]-5-cyclopropyl-1H-pyrazole-4-carboxylic Acid]: the IC50 in test [1] and in test [2] was 10 to 100 nM in each case.
On to `CCOC[C@@H]1CCCN1C(=O)c1cccc(-c2cccc(-n3ncc(C(=O)O)c3[C@@H]3C[C@H]3c3cn(C)nn3)c2)c1F` [Example 267], for which the concentration for half-maximal inhibition (IC50) was 10 to 100 nM in test [1] and less than 10 nM in test [2].
For the molecule `CC(C)CN(C)C(=O)c1cccc(-c2cccc(-n3ncc(C(=O)O)c3[C@@H]3C[C@H]3c3cn(C)nn3)c2)c1F` (racemic) [Example 266, 1-(2′-Fluoro-3′(isobutyl(methyl)carbamoyl)-[1,1′-biphenyl]-3-yl)-5-(trans-2-(1-methyl-1H-1,2,3-triazol-4-yl)cyclopropyl)-1H-pyrazole-4-carboxylic Acid], the figures for the IC50 in test [1] and in test [2] were 10 to 100 nM and less than 10 nM, respectively.
As for `CCCC1CCCCN1C(=O)c1cccc(-c2cccc(-n3ncc(C(=O)O)c3C3CC3)c2)c1F` (stereo in doubt) [Example 54d, 5-Cyclopropyl-1-{3-[2-fluoro-3-((2R)-2-propylpiperidine-1-carbonyl)phenyl]phenyl}-1H-pyrazole-4-carboxylic Acid], the concentration for half-maximal inhibition (IC50) in test [1] and in test [2] was 10 to 100 nM each time.
`CCC[C@@H]1CCCCN1C(=O)c1cccc(-c2cccc(-n3ncc(C(=O)O)c3C3CC3)c2)c1F` [Example 54e, 5-Cyclopropyl-1-{3-[2-fluoro-3-((2-S)-2-propylpiperidine-1-carbonyl)phenyl]phenyl}-1H-pyrazole-4-carboxylic Acid]: the IC50 in test [1] and in test [2] was 100 to 1000 nM each time.
Turning to `O=C(O)c1cnn(-c2cccc(-c3cccc(C(=O)N4CCCCC4CCC(F)(F)F)c3F)c2)c1C1CC1` (stereo not shown) [Example 38, 5-Cyclopropyl-1-(3-{2-fluoro-3-[2-(3,3,3-trifluoropropyl)piperidine-1-carbonyl]phenyl}phenyl)-1H-pyrazole-4-carboxylic Acid], the IC50 in test [1] and in test [2] was 10 to 100 nM each time.
For the molecule `CC1(C)CCc2cnn(-c3cccc(-c4cccc(-n5ncc(C(=O)O)c5C(F)(F)F)c4)c3)c21` [Example 250, 1-(3′-(6,6-Dimethyl-5,6-dihydrocyclopenta[c]pyrazol-1(4H)-yl)-[1,1′-biphenyl]-3-yl)-5-(trifluoromethyl)-1H-pyrazole-4-carboxylic Acid], the IC50 in test [1] and in test [2] was 100 to 1000 nM throughout.
For `CC1(C)CCc2cnn(-c3cccc(-c4cccc(-n5ncc(C(=O)O)c5C5CC5)c4)c3)c21` [Example 63, 5-Cyclopropyl-1-(3′-(6,6-dimethyl-5,6-dihydrocyclopenta[c]pyrazol-1(4H)-yl)-[1,1′-biphenyl]-3-yl)-1H-pyrazole-4-carboxylic Acid], the IC50 in test [1] lay within 100 to 1000 nM; in test [2], 10 to 100 nM.
As to `Cn1cc([C@H]2C[C@@H]2c2c(C(=O)O)cnn2-c2cccc(-c3cccc(C(=O)N4CCCC(C)(C)C4)c3F)c2)nn1` (racemic) [Example 259, 1-(2′-Fluoro-3′-(3,3-dimethylpiperidine-1-carbonyl)-[1,1′-biphenyl]-3-yl)-5-(trans-2-(1-methyl-1H-1,2,3-triazol-4-yl)cyclopropyl)-1H-pyrazole-4-carboxylic Acid], the 50% inhibitory concentration (IC50) was 10 to 100 nM in test [1] and less than 10 nM in test [2].
In the case of `CCC1Cc2ccccc2CN(Cc2cccc(-c3cccc(-n4ncc(C(=O)O)c4[C@@H]4C[C@H]4c4cn(C)nn4)c3)c2)C1` (relative stereo) [Example 252, 1-(3′-((4-Ethyl-4,5-dihydro-1H-benzo[c]azepin-2(3H)-yl)methyl)-[1,1′-biphenyl]-3-yl)-5-(trans-2-(1-methyl-1H-1,2,3-triazol-4-yl)cyclopropyl)-1H-pyrazole-4-carboxylic Acid], the IC50 in test [1] and in test [2] was 10 to 100 nM each time.
Regarding `CCOC[C@H]1CCCN1C(=O)c1cccc(-c2cccc(-n3ncc(C(=O)O)c3[C@@H]3C[C@H]3c3cn(C)nn3)c2)c1F` [Example 268], the concentration for half-maximal inhibition (IC50) in test [1] was 10 to 100 nM; in test [2], less than 10 nM.
With `CC1CCC(C)N(C(=O)c2cccc(-c3cccc(-n4ncc(C(=O)O)c4C4CC4)c3)c2F)C1` (stereo not shown) [Example 30, 5-Cyclopropyl-1-{3-[3-(2,5-dimethylpiperidine-1-carbonyl)-2-fluorophenyl]phenyl}-1H-pyrazole-4-carboxylic Acid], the IC50 was 10 to 100 nM in test [1] and 100 to 1000 nM in test [2].

For orientation: IC50 means the concentration at which inhibition is half-maximal. Read a low IC50 as higher potency.
